Source: patent US10568949B2, “Method of eliciting an anti-tumor immune response with controlled delivery of TLR agonists in porous polymerlc devices” (President and Fellows of Harvard College, priority 2008, dated 2020)
Several values for one entry are separate records, joined by “and”; a condition that tells them apart may be missing. Equal values may be shown once.

Experiments:
dendritic cells = experiment: Example 7: DC recruitment and activation in matrices with GM-CSF and TLR agonists (FACS, day 7); format: in vivo, C57BL/6J mice
Text: The cell suspensions were then poured through a 40 μm cell strainer to isolate cells from scaffold particles and the cells were pelleted and washed with cold PBS and counted using a Z2 coulter counter (Beckman Coulter). To assess, DC infiltration and activation, subsets of the total cell population isolated from PLG matrices were then stained with primary antibodies (BD Pharmingen, San Diego, Calif.) conjugated to fluorescent markers to allow for analysis by flow cytometry. APC-conjugated CD11c (dendritic cell marker), FITC-conjugated MHCII and PE-conjugated CD86 (B7, costimulatory molecule) stains were conducted for DC recruitment and activation analysis. To further delineate the presence of specific DC subsets, cells were also stained with APC-conjugated CD11c and PE-conjugated PDCA-1 (plasmacytoid DC marker) or APC-conjugated CD11c and PE-conjugated CD8 (CD8 DCs). To assess T-cell infiltration PE-Cy7 conjugated CD3 stains were performed in conjunction with APC-conjugated CD8a (CD8 T cells), and PE-conjugated FoxP3 (Treg) and analyzed with flow cytometry. Cells were gated according to single positive FITC, APC and PE stainings and using isotype controls. The percentage of cells staining positive for each surface antigen was recorded. To examine the ability of PLG matrices to recruit and activate dendritic cells in vivo, matrices delivering GM-CSF in combination with danger signals were implanted subcutaneously into the backs of C57BL/6J mice. The magnitude of DC infiltration and activation into the matrices was determined by FACS analysis of cell populations isolated from the polymeric material after 7 days.

[1] = In vitro release / retention of GM-CSF, cytokines and TLR agonists from PLG scaffolds; format: physicochemical
Experimental: To determine the incorporation efficiency of CpG-ODN incorporation, PLG scaffolds were prepared with 50 ug of CpG-ODN and digested in 1 ml of chloroform (Sigma Aldrich, and washed with 2 mls of aqueous buffer. The aqueous phase was isolated and the amount of CpG-ODN incorporated was determined by absorbance readings (260/280 and 260/230 ratios calculated at 0.2 mm pathlength) using a Nanodrop instrument, ND1000 (Nanodrop technologies, Wilmington, Del.). Similarly, to determine CpG-ODN release kinetics CpG-ODN loaded scaffolds were placed in 1 ml of Phosphate Buffer Solution (PBS) in an incubator (37° C.). At various timepoints, the PBS release media was collected and replaced with fresh media. The total amount of CpG-ODN incorporated into PLG scaffolds and released into PBS over time was analyzed and recorded.

TRP2-specific CTLs = TRP2-specific CTLs in spleens (pentamer staining); format: in vivo, C57BL/6J mice; details: GM-CSF, antigen
Text: […] These cells were initially stained with APC-H-2Kb-TRP2 pentamers (Proimmune) and subsequently stained with PE-conjugated monoclonal antibody to CD8 (BD Pharmingen) before being analyzed by flow cytometry.

B16-F10 melanoma tumors = experiment: T-cell infiltration into tumor tissue (immunohistochemistry); format: in vivo, C57BL/6J mice
Experimental: PLG scaffolds with melanoma tumor lysates and various dosages of GM-CSF and/or 10 μg PEI-CpG-ODN condensates were implanted subcutaneously into the lower left flank of C57BL/6J mice. Animals were challenged 14 days later with a subcutaneous injection of 10^5 B16-F10 melanoma cells (ATCC, Manassas, N.J.) in the back of the neck. Animals were monitored for the onset of tumor growth (approximately 1 mm^3) and sacrificed for humane reasons when tumors grew to 20-25 mm (longest diameter). For histological examination, tumors were biopsied at days 20-25 after injection and fixed in Z-fix (Anatech, Battle Creek, Mich.) and stained for hematoxylin and eosin. To examine tumor tissue for T-cell infiltration, immunoperoxidase staining was performed using the avidin-biotin-peroxidase Vectastain Elite ABC kit (Vector Laboratories). The primary antibodies used were GK 1.5 (CD4), and 53-6.72 (CD8) and staining was developed using DAB+ substrate chromogen (DAKO, Carpinteria, Calif.). Sections from tumor samples (n=3 or 4) were visualized at 40× and 100× with a Nikon light microscope (Indianapolis, Ind.) and positively stained T-cells were counted manually.

B16-F10 melanoma cells [2] = experiment: Example 7: prophylactic vaccination, B16-F10 melanoma; format: in vivo, C57BL/6J mice; design: concentration or dose not given beside the values; details: for survival rate: B16-F10 tumor lysates and GM-CSF, with or without TLR agonist, challenge at day 14
T cells = experiment: T cell infiltration at PLG vaccine site (flow cytometry); format: in vivo, C57BL/6J mice; details: with tumor lysate and GM-CSF, day 12
Experimental: Blank PLG matrices and matrices containing 3000 ng of GM-CSF alone or in combination with either 1, 10, 50, or 100 μg of CpG-ODN (studies were also performed with tumor lysates copresented with either 3000 ng of GM-CSF or 100 μg of CpG-ODN alone or in combination) were implanted into subcutaneous pockets on the back of 7- to 9-week-old male C57BL/6J mice. For histological examination, scaffolds were excised and fixed in Z-fix solution (Anatech), embedded in paraffin, and stained with hematoxylin and eosin (H&E). To analyze DC recruitment, scaffolds were excised at various time points and digested the ingrown tissue into single-cell suspensions with a collagenase solution (250 U/ml; Worthington) that was agitated at 37° C. for 45 min. The cell suspensions were then poured through a 40-μm cell strainer to isolate cells from scaffold particles, and the cells were pelleted and washed with cold PBS and counted with a Z2 coulter counter (Beckman Coulter). […] To assess T cell infiltration, PE-Cy7-conjugated CD3 stains were performed in conjunction with APC-conjugated CD8a (CD8 T cells), FITC-conjugated CD4 (CD4 T cells), and PE-conjugated FoxP3 (Treg) and analyzed with flow cytometry. Cells were gated according to positive FITC, APC, and PE with isotype controls, and the percentage of cells staining positive for each surface antigen was recorded.

B16-F10 melanoma cells [3] = experiment: Prophylactic vaccination, B16-F10 melanoma tumor challenge; details: for mouse survival: antigen matrices, CpG and GM-CSF together versus GM-CSF alone
Experimental: PLG scaffolds with melanoma tumor lysates and various dosages of GM-CSF and/or 10 μg PEI-CpG-ODN condensates were implanted subcutaneously into the lower left flank of C57BL/6J mice. Animals were challenged 14 days later with a subcutaneous injection of 10^5 B16-F10 melanoma cells (ATCC, Manassas, N.J.) in the back of the neck. Animals were monitored for the onset of tumor growth (approximately 1 mm^3) and sacrificed for humane reasons when tumors grew to 20-25 mm (longest diameter).
PLG scaffolds with melanoma tumor lysates and various dosages of GM-CSF and/or various quantities of PEI-CpG-ODN condensates were implanted subcutaneously into the lower left flank of C57BL/6J mice. For prophylactic vaccinations, animals were challenged 14 days later with a subcutaneous injection of 10^5 B16-F10 melanoma cells [American Type Culture Collection (ATCC)] in the back of the neck. Animals were monitored for the onset of tumor growth (˜1 mm^3) and killed for humane reasons when tumors grew to 20 to 25 mm (longest diameter).

[4] = test system: IL-12p70, IFN-α, IFN-γ, and TGF-β; experiment: In vivo cytokine concentrations at matrix implant site (ELISA); design: species or system C57BL/6J mice
Experimental: After centrifugation, the concentrations of IL-12, IFN-α, IFN-γ, and TGF-β in the supernatant were then analyzed with enzyme-linked immunosorbent assay (R&D Systems) according to the manufacturer's instructions.

[5] = optimal GM-CSF exposure (400 ng) with tumor antigen

## CpG-ODN 1826
Dendritic cells; with GM-CSF
  CD8(+) DCs at implant site, higher than controls: 9 fold
  CD11c(+) cells positive for MHCII(+) and CD86(+), of total cells recruited: approximately 30%
  enhancement of total number of recruited DCs compared to GM-CSF delivery alone: 2.5 fold
  increase in total number of activated DCs relative to control matrices: ~23 fold
[1]; over 25 days
  retained in the PLG matrices: > 80%
TRP2-specific CTLs; CpG dose 50 μg
  TRP2-specific CD8 T cells: 0.3 % splenocytes
B16-F10 melanoma tumors; infection mimics, 10 μg CpG-ODN dose
  increase in CD8(+) T-cell infiltration into tumors over controls: ~3 fold
B16-F10 melanoma cells [2]
  survival rate: 90%
B16-F10 melanoma cells [2]; wildtype mice, CpG-ODN loaded PLG vaccines
  long-term survival: 100%
T cells
  ratio of CD8 CTLs to FoxP3 Treg cells at vaccine site (factor): ~25
B16-F10 melanoma cells [3]
  mouse survival: 90%
B16-F10 melanoma cells [3]; lysate, GM-CSF and 10 μg CpG-ODN
  survival rate: 50% and 45%
B16-F10 melanoma cells [3]; lysate, GM-CSF and 10 μg CpG-ODN, listed as CpG
  survival rate: 50%
B16-F10 melanoma cells [3]; lysate, GM-CSF and 50 μg CpG-ODN
  survival rate: 60%
B16-F10 melanoma cells [3]; lysate, GM-CSF and 100 μg CpG-ODN
  survival rate: 90%
B16-F10 melanoma cells [3]; tumor lysates with CpG-ODN (1, 10, 50 or 100), no GM-CSF
  vaccinated mice surviving B16-F10 challenge: 10 to 30% and 20% and 10-30%
[4]; high doses of CpG-ODN
  local production of IFN-α: ~1010 pg/mL
  local production of IL-12: 150 pg/mL

B1: granulocyte macrophage colony stimulating factor (protein, UniProt P01587 18-141, looked up)
Granulocyte-macrophage …: APTRSPITVTRPWKHVEAIKEALNLLDDMPVTLNEEVEVVSNEFSFKKLTCVQTRLKIFEQGLRGNFTKLKGALNMTASYYQTYCPPTPETDCETQVTTYADFIDSLKTFLTDIPFECKKPGQK
notes: cytokine encapsulated in and released from PLG matrices to recruit DCs
Dendritic cells; GM-CSF alone
  CD11c(+) cells in matrices: 241000 cells
  CD86 expression: 4.58 % of CD11c(+) cells
  MHCII expression: 2.57 % of total CD11c(+) cells
[1]; by day 4, in vitro
  incorporated cytokine released from scaffolds: approximately 43%
[1]; by day 10, in vitro
  GM-CSF protein released from PLG matrices: approximately 60%
[1]; over the next 23 days after day 4
  daily release of protein: approximately 0.9%
[1]; within the first 5 days
  bioactive GM-CSF load released from PLG matrices: approximately 60%
TRP2-specific CTLs; CpG dose 0 μg
  TRP2-specific CD8 T cells: 0.2 % splenocytes
B16-F10 melanoma tumors; appropriate GM-CSF presentation with antigen
  increase in CD8(+) cytotoxic T-cell numbers in tumors over blank controls: 2 fold
B16-F10 melanoma cells [2]
  survival rate: 10%
T cells
  ratio of CD8 CTLs to FoxP3 Treg cells at vaccine site (factor): almost even ratio
B16-F10 melanoma cells [3]; GM-CSF with antigen, optimal GM-CSF dose
  animals cured / with protective anti-tumor immunity: 23%
B16-F10 melanoma cells [3]
  mouse survival: 20%
B16-F10 melanoma cells [3]; lysate, GM-CSF, CpG dose 0 μg
  animal survival: 23%
B16-F10 melanoma cells [3]; optimal GM-CSF dose with antigen, in 50% of the animals
  delay of tumor formation: approximately 40 days
B16-F10 melanoma cells [3]; [5]
  increase in average time before tumor formation compared to antigen alone: 3 fold
  increase in average time before tumor formation over non-optimal GM-CSF exposure: ~2 fold
[4]; GM-CSF and tumor lysate in matrix
  factor of increase in TGFβ concentrations at vaccine site: 10
